Laboratory results as given in patent publication US20060258598A1, “Alpha-keto carbonyl calpain inhibitors” (priority 2003, published 2006).

How the values were obtained:
human μ-calpain = target: T1, human μ-calpain (Homo sapiens, UniProt P07384); assay: Enzymatic calpain inhibition assay; assay type: biochemical; conditions: substrate Suc-Leu-Tyr-AMC, read-out: Calp I IC50
T1 construct: purchased Calbiochem
T1 sequence (P07384 1-714): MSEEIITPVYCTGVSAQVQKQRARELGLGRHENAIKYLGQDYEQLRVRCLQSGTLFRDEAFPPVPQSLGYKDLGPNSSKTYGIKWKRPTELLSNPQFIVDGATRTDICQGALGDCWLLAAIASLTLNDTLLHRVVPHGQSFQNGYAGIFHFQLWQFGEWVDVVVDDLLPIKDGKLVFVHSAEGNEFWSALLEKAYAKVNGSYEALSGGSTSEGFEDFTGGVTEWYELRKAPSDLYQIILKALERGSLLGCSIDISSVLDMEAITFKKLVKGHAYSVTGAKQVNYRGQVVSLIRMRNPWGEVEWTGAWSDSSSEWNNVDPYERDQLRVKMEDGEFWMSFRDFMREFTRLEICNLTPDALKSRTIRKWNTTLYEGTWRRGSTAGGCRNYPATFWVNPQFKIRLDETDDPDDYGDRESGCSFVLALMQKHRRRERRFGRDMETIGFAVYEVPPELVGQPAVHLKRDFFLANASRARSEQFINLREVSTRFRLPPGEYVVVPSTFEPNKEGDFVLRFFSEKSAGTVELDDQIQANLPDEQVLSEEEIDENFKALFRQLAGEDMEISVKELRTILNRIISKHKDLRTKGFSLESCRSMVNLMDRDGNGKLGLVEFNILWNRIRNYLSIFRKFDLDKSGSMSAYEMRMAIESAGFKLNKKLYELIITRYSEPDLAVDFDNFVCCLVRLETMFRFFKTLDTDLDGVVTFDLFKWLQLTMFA
T1 sequence (P04632 1-268 partner): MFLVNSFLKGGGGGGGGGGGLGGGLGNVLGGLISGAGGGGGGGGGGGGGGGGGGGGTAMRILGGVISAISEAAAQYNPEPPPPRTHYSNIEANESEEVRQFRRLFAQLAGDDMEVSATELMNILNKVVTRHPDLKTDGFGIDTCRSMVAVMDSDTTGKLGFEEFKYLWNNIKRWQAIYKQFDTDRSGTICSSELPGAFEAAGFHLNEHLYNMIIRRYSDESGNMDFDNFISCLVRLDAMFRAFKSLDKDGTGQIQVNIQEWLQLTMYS
Method in brief: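 Human μ-calpain (0.5 μg) with 250 μM Suc-Leu-Tyr-AMC in 100 mM imidazole pH 7.5, 5 mM cysteine, 5 mM CaCl2. AMC fluorescence (ex 360/em 440 nm) followed 30 min at 30 °C; IC50 determined graphically from initial velocities versus inhibitor concentration.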

[1] = system: Primary fibroblasts from donors with Friedreich Ataxia (FRDA); assay: BSO assay (cell viability under BSO-induced oxidative stress); assay type: cell-based, human; conditions: Homo sapiens, Fibroblast, 24 h preincubation, 1 mM BSO
Method in brief: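 FRDA patient primary fibroblasts were pretreated with compounds for 24 h, then exposed to 1 mM BSO (final) until toxicity appeared in BSO-only controls (typically 16–48 h). Viability was read by calcein AM (1.2 μM)/ethidium homodimer (4 μM) staining, 60 min RT, fluorescence 485/525 nm.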

IC50 (human μ-calpain): 25 nM
SMILES: CCNC(=O)C(=O)[C@H](Cc1ccc(Br)cc1)NC(=O)[C@H](CC(C)C)NC(=O)CCCCC1CCSS1 (some centres unmarked) [Example 64]
EC50 [1]: 1000 nM
